From US8828966B2, “Method for treatment of macular degeneration by modulating P2Y12 or P2X7 receptors” (priority 2006, dated 2014)

Key:
[1] = test system: ARPE-19 cells; experiment: Toxicity of A2E to cultured cells; assay type: cell-based, human; settings: A2E 100 nM, over a period of 1-2 weeks
Method: Holz and colleagues previously reported A2E responses, but the increase in pHL required four weeks of feeding the cells with A2E (14 nM) every 3-4 days, and the A2E was complexed to low-density lipoprotein (LDL; 10 μg/ml) (Holz et al., supra, 1999). […] To reduce the lengthy time course, higher concentrations of A2E (100 nM) were tested, but the cells were killed over a period of 1-2 weeks. Therefore, alternative methods were needed to permit timely testing of the effect of pH on lysosomal activity in the RPE cells.

[2] = test system: ARPE-19 cells; experiment: Lysosomal pH (pHL) with LysoSensor Yellow/Blue, high through-put screen; assay type: cell-based, human; settings: for effect on pHL of cells treated with tamoxifen: tamoxifen concentration not stated, A68930 and A77636 at 1 μM; for effect on pHL, agent alone: cells without other alkalinizing agent, NH4Cl 10 mM, BAF 200 nM, CHQ 20 μM, CFTR-172 10 μM, LDL 10 μg/ml, others not given
Method: Lysosensor Yellow/Blue co-localized with the Lysotracker Red dye in small vesicles, with a distribution consistent with lysosomal origin. Measurements of pHL were performed using a high throughput screening (HTS) protocol to maximize output and minimize variation using ARPE-19 cells in 96 well plates. […] Loading for 5 min. at 23° C. with 5 μM lysosensor, followed by 15 min. for internalization, produced stable and reproducible results.
The ratio was converted to pH by calibrating with KCl buffered to pH 4.0-6.0 in the presence of monensin and nigericin. Calibration indicated a baseline pH of 4.4 to 4.5, supporting lysosomal localization. […] NH4Cl decreased the ratios slightly at 380 nm. Nevertheless, absent the addition of the dye, none of these compounds, or any others, altered the fluorescent signal at 340 or 380 nm, showing a specificity of the measured change to pHL. […] This quantification is necessary to predict the potential effectiveness of acidifying drugs to restore lysosomal enzyme activity.
Extensive trials determined that the optimal response is obtained with 5 minute dye loading and 15 minute post-incubation. […] All reagents were from Sigma Chemical Corp. unless otherwise indicated.
In general, each condition below used 3-12 independent wells per plate, in 3-6 separate plates. As levels from individual plates varied, data was normalized to the mean pHL for control wells from each plate. Fluorescent ratios were converted to pH following calibration performed on each plate as described. Incubation with Lysosensor Yellow/Blue was kept constant and all measurements were performed 15 min after removal of dye from the bath to ensure continuity. Significance was determined with a one-way ANOVA and Tukey post test. Drugs were always tested on control cells to ensure modification of healthy RPE cells was minimal, and cells were not exposed to dye to make sure effects were specific. All background was subtracted from the fluorescence excited at 340 and 380 nm independently before calculation of the ratio.

[3] = test system: RPE cells from ABCA4−/− mice; experiment: Lysosomal pH in fresh RPE cells from ABCA4-/- mice, drug added to the cells; assay type: cell-based, mouse; settings: RPE cells from 11-month-old ABCA4−/− mice
Description: Measurement of pHL from Isolated Mouse Cells: Based on protocols that are used extensively to measure Ca2^+ from retinal ganglion cells (Zhang et al. Invest. Ophthalmol. Vis. Sci. 46:2183-2191 (2005)), cells were fixed on coverslips and mounted on Nikon Eclipse inverted microscope, visualized with a x40 oil-immersion fluorescence objective, and perfused with control solution. The field was alternatively excited at 340 nm and 380 nm, and fluorescence >515 emitted from the region of interest surrounding individual cells is measured with a CCD camera and Imagemaster software (Photon Technologies International, Inc). After baseline levels were recorded for 3-5 minutes in the absence of dye, solution was replaced with 5 μM Lysosensor Yellow/Blue dye for 5 minutes before washing for an additional 15 minutes. The ratios in the control solutions were recorded, and then acidifying drugs were added. Ratios were converted to pH with monensin/nigericin as above.
As a result, lysosomal pH increases early, and is measured in ABCA4^−/− mice at 6, 12 and 18 weeks from RPE cells within 5 hours of sacrifice. […] However, the signal/noise from measurements of isolated cells with the plate reader is not acceptable. Instead, this signal is measured using the microscope-based imaging system, previously used successfully to measure Ca2^+ from freshly isolated retinal ganglion cells (Zhang et al., supra, 2005). […]

[4] = test system: primate model of the disease; settings: delivered orally; cited from earlier work
[5] = test system: other P2 receptors; settings: cited from earlier work
[6] = test system: ARPE-19 cells; experiment: FACS analysis of autofluorescence (excited at 488 nm); assay type: cell-based, human; settings: photoreceptor outer segments plus 10 μM chloroquine, 7 days
Description: To maintain a balance between the synthesis, degradation, and subsequent recycling of cellular products there are a variety of autophagic responses, but all involve degradation of intracellular components via the lysosome. Typically, autophagy involves the formation of a membrane around a targeted region of the cell, separating the contents from the rest of the cytoplasm, and then the resultant vesicle fuses with a lysosome and the contents are subsequently degraded.

[7] = test system: cAMP in the RPE; experiment: Effect of ATP on cAMP in the RPE; assay type: cell-based
Method: P2Y11 Receptor: The initial investigation screened agonists that act at multiple P2 receptors for their effect on pHL using the high through-put assay. BzATP, ATP, ATPγS, ADPγS and 2 MeSATP and AR-C67085 were added at 10, 30, 100 and 300 μM, respectively, and relative actions were compared with published information for the human P2Y11 receptor (von Kugelgen et al, supra, 2000; Communi et al., supra, 1997; Communi et al., Br. J. Pharmacol. 128:1199-206 (1999)). ATP was added in the presence of ecto-ATPase/eNPP inhibitors βγmATP and ARL67156 (100 μM) since they prevent degradation of ATP in these cells. Receptor involvement was confirmed with antagonists suramin, reactive blue 2 and pyridoxal-phosphate-6-azophenyl-2′,4′-disulphonic acid (PPADS; all at 0.1, 1, 10 and 100 μM). Since the finding that ATP had the ability to elevate cAMP in the RPE was novel, the effect of ATP on cAMP was measured directly using the cAMP-Screen Direct Chemiluminescent Immunoassay System kit from Applied Biosystems using an HTS luminometer to measure […]. The role of cAMP was confirmed by inhibiting pKA with 100 μM Rp-8-Br-cAMPS.

[8] = NH4Cl 10 mM
Method: Isolation of Lysosomes: ARPE-19 cells were detached with 0.25% trypsin, centrifuged at 1000 rpm for 5 minutes, and resuspended in 0.25M sucrose with 5 mM ATP in 10 mM Tris buffer (pH 7.4 with HCl). After homogenization, samples were spun at 1000×g (10 min). The supernatant was centrifuged (20,000×g, 10 min) and the pellet was resuspended in a 0.25 M sucrose buffer with 8 mM CaCl2 in Tris-HCl buffer (pH 7.4) to lyse mitochondria (15 min, 35° C.). […] After isolation, lysosomes were diluted 1:10 in a 150 mM KCl solution in Tris-HCl (pH 7.4) and pelleted at 25,000×g. The pellet was then resuspended in 5 μM Lysosensor dye. Cells were washed 2× by centrifugation (25,000×g, 15 min), resuspended in test or control solutions including 5 mM MgATP, plated into a 96 well plate (50 μl/well) and the pH was measured as above.

[9] = test system: ABCA4−/− mice; experiment: Oral ticagrelor in ABCA4-/- mice, RPE autofluorescence; assay type: in vivo, mouse; settings: 26 month old mice, 12 ug/ml in the water for 4 days, excited with 406 nm laser
Description: Finally, as recorded in the photographic images of FIG. 12F, autofluorescence in untreated ABCA4−/− mice (upper, Con)) were compared with those treated with Brilinta (lower, Bri) in the water.

[10] = test system: ABCA4−/− mice; experiment: Oral P2Y12 inhibitor in ABCA4-/- mice, lysosomal pH of RPE cells; assay type: in vivo, mouse; settings: 20 month old mice, 12 ug/ml in the water for 19 days
Method: In this example the selected P2Y12 inhibitor was clopidogrel (commercially available as Plavix), but the invention need not be so limited, and other P2Y12 inhibitors, such as AR-C66096, may be used. The clopidogrel was given orally at 50 mg/kg and the pH measured from RPE cells that were removed 4 hrs later.

[11] = test system: LC3BII and p62 in ARPE-19 cells; experiment: Western blot of autophagy markers; assay type: cell-based, human; settings: Western blot quantification
Description: While the RPE cells must degrade phagocytosed outer segments, they must also degrade and dispose of their own waste material through a process termed autophagy. The ability of P2X7 receptor stimulation to rapidly raise levels of autophagy markers LC3BII and p62 are consistent with the effects of raising lysosomal pH, for they imply that lysosomal alkalinization prevents the RPE cell from degrading material from autopagic vesicles containing p62 or tagged with LC3BII. (See, Kabeya, Y., et al., “LC3, a mammalian homolog of yeast Apg8p, is localized in autophagosome membranes after processing.” EMBO J., 22:[…] (2003); Moscat, J. and Diaz-Meco, M. T. (2009) “p62 at the Crossroads of Autophagy, Apoptosis, and Cancer,” Cell 137:1001-1004 (2009)).

[12] = test system: Cathepsin-D activity in ARPE-19 cells; experiment: Cathepsin-D activity monitored with a fluorescent reporter; assay type: cell-based, human; settings: addition of BzATP
Description: In FIG. 13C, it is shown that BzATP reduced lysosomal enzyme activity. […] Cathepsin D is the major lysosomal protease responsible for degrading photoreceptors in the RPE, and thus changes to cathepsin D activity reflect the ability of the lysosomes to successfully degrade (dispose of) phagocytosed outer segments. […] Consequently, by applying exogenous antagonists to the P2X7 and P2Y12 receptors (i.e., P2X7 receptor-antagonist, and/or P2Y12 receptor-antagonist), the resulting pH elevation by endogenously released ATP is inhibited or prevented, thereby enhancing degradation of the metabolic waste by the lysosomes, reducing autofluorescent lipofuscin accumulation, and thus reducing the onset or progression of AMD.

Molecule: CC(C=CC1=C(C)CCCC1(C)C)=CC=CC(C)=Cc1cc(C=CC=C(C)C=CC2=C(C)CCCC2(C)C)cc[n+]1CCO [A2E, N-retinylidene-N-retinylethanolamine]
- cell killing [1]: killed
- increase in pHL ([2]; ARPE-19 cells, A2E (14 nM) fed for 4 weeks): 0.4 units

Molecule: NC[C@@H]1O[C@H](c2ccccc2)Cc2c1ccc(O)c2O [A68930]
- effect on pHL (ratio 340 to 380 nm) [3]: decreased pHL
- effect on pHL of cells treated with tamoxifen [2]: decreased lysosomal pH

Molecule: NC[C@@H]1O[C@H](C23CC4CC(CC(C4)C2)C3)Cc2c1ccc(O)c2O [A77636]
- effect on pHL (ratio 340 to 380 nm) [3]: decreased pHL
- Parkinsonian activity [4]: reduces Parkinsonian activity
- effect on pHL of cells treated with tamoxifen [2]: decreased lysosomal pH

Molecule: Cl.Clc1cccc(-c2nnnn2Cc2cccnc2)c1Cl [A438079, 3-[[5-(2,3-Dichlorophenyl)-1H-tetrazol-1-yl]methyl]pyridine hydrochloride salt]
- activity at other P2 receptors [5]: devoid of activity at other P2 receptors
- effect on autofluorescence enhanced by POS+CHQ [6]: reduced this enhanced autofluorescence
- effect on pHL rise by P2X7 agonist BzATP ([2]; cells stimulated with BzATP): prevented this rise

Molecule: Nc1ncnc2c1ncn2[C@@H]1O[C@H](COP(=O)(O)OP(=O)(O)OP(=O)(O)O)[C@@H](O)[C@H]1O [ATP]
- effect on cAMP in the RPE [7]: elevate cAMP
- effect on lysosomal pH, conditions not stated [2]: acidify lysosomes

Molecule: Cl.N [NH4Cl]
- 340/380 ratio in isolated lysosomes [8]: increased the 340/380 ratio
- effect on pHL, agent alone [2]: pH was elevated

Molecule: CCCSc1nc(N[C@@H]2C[C@H]2c2ccc(F)c(F)c2)c2nnn([C@@H]3C[C@H](OCCO)[C@@H](O)[C@H]3O)c2n1 [ticagrelor]
- autofluorescence in RPE cells [9]: decreased autofluorescence
- lysosomal pH of RPE cells (ratio of pH sensor) after drug in the water [10]: reduced lysosomal pH of RPE cells

Molecule: BzATP
- LC3BII level [11]: rapid increases
- p62 level [11]: rapid increases
- Cathepsin-D activity [12]: visibly decreased
- effect on pHL, agent alone [2]: elevation of the lysosomal pHL
